Measured values published in ChEMBL document CHEMBL3994622, “Design and synthesis of new RAF kinase-inhibiting antiproliferative quinoline derivatives. Part 2: Diarylurea derivatives” (Eur J Med Chem, 2017).

Key:
Type in all cases: functional
[1] = tested on: MOLT-4; test: Growth inhibition of human MOLT4 cells incubated for 48 hrs by sulforhodamine B assay; conditions: MOLT-4, 48 h
[2] = tested on: HOP-62; test: Growth inhibition of human HOP62 cells incubated for 48 hrs by sulforhodamine B assay; conditions: HOP-62, 48 h; for CC50: read-out: LC50 (the source's name)
[3] = tested on: NCI-H322M; test: Growth inhibition of human NCI-H322M cells incubated for 48 hrs by sulforhodamine B assay; conditions: for CC50: read-out: LC50 (the source's name)
[4] = tested on: NCI-H460; test: Growth inhibition of human NCI-H460 cells incubated for 48 hrs by sulforhodamine B assay; conditions: NCI-H460, 48 h; for CC50: read-out: LC50 (the source's name)
[5] = tested on: NCI-H522; test: Growth inhibition of human NCI-H522 cells incubated for 48 hrs by sulforhodamine B assay; conditions: NCI-H522, 48 h; for CC50: read-out: LC50 (the source's name)
[6] = tested on: COLO 205; test: Growth inhibition of human COLO205 cells incubated for 48 hrs by sulforhodamine B assay; conditions: COLO 205, 48 h; for CC50: read-out: LC50 (the source's name)
[7] = tested on: HCC 2998; test: Growth inhibition of human HCC2998 cells incubated for 48 hrs by sulforhodamine B assay; conditions: HCC 2998, 48 h; for CC50: read-out: LC50 (the source's name)
[8] = tested on: SNB-19; test: Growth inhibition of human SNB19 cells incubated for 48 hrs by sulforhodamine B assay; conditions: SNB-19, 48 h; for CC50: read-out: LC50 (the source's name)
[9] = tested on: Malme-3M; test: Growth inhibition of human MALME-3M cells incubated for 48 hrs by sulforhodamine B assay; conditions: for CC50: read-out: LC50 (the source's name)
[10] = tested on: M14; test: Growth inhibition of human M14 cells incubated for 48 hrs by sulforhodamine B assay; conditions: M14, 48 h; for CC50: read-out: LC50 (the source's name)
[11] = tested on: MDA-MB-435; test: Growth inhibition of human MDA-MB-435 cells incubated for 48 hrs by sulforhodamine B assay; conditions: MDA-MB-435, 48 h; for CC50: read-out: LC50 (the source's name)
[12] = tested on: SK-MEL-2; test: Growth inhibition of human SK-MEL-2 cells incubated for 48 hrs by sulforhodamine B assay; conditions: SK-MEL-2, 48 h; for CC50: read-out: LC50 (the source's name)
[13] = tested on: SK-MEL-5; test: Growth inhibition of human SK-MEL-5 cells incubated for 48 hrs by sulforhodamine B assay; conditions: SK-MEL-5, 48 h; for CC50: read-out: LC50 (the source's name)
[14] = tested on: UACC-62; test: Growth inhibition of human UACC62 cells incubated for 48 hrs by sulforhodamine B assay; conditions: UACC-62, 48 h; for CC50: read-out: LC50 (the source's name)
[15] = tested on: IGROV-1; test: Growth inhibition of human IGROV1 cells incubated for 48 hrs by sulforhodamine B assay; conditions: IGROV-1, 48 h; for CC50: read-out: LC50 (the source's name)
[16] = tested on: OVCAR-4; test: Growth inhibition of human OVCAR4 cells incubated for 48 hrs by sulforhodamine B assay; conditions: OVCAR-4, 48 h; for CC50: read-out: LC50 (the source's name)
[17] = tested on: OVCAR-5; test: Growth inhibition of human OVCAR5 cells incubated for 48 hrs by sulforhodamine B assay; conditions: OVCAR-5, 48 h; for CC50: read-out: LC50 (the source's name)
[18] = tested on: CAKI-1; test: Growth inhibition of human Caki1 cells incubated for 48 hrs by sulforhodamine B assay; conditions: CAKI-1, 48 h; for CC50: read-out: LC50 (the source's name)
[19] = tested on: SN12C; test: Growth inhibition of human SN12C cells incubated for 48 hrs by sulforhodamine B assay; conditions: for CC50: read-out: LC50 (the source's name)
[20] = tested on: MCF7; test: Growth inhibition of human MCF7 cells incubated for 48 hrs by sulforhodamine B assay; conditions: MCF7, 48 h; for CC50: read-out: LC50 (the source's name)
[21] = tested on: SNB-19; test: Growth inhibition of human SNB19 cells assessed as cell growth at 0.003 uM incubated for 48 hrs by sulforhodamine B assay relative to control; conditions: SNB-19, 48 h, read-out: Activity
[22] = tested on: SF-295; test: Growth inhibition of human SF295 cells assessed as cell growth at 3 uM incubated for 48 hrs by sulforhodamine B assay relative to control; conditions: SF-295, 48 h, read-out: Activity
[23] = tested on: SK-MEL-28; test: Growth inhibition of human SK-MEL-28 cells assessed as cell growth at 3 uM incubated for 48 hrs by sulforhodamine B assay relative to control; conditions: SK-MEL-28, 48 h, read-out: Activity
[24] = tested on: OVCAR-5; test: Growth inhibition of human OVCAR5 cells assessed as cell growth at 3 uM incubated for 48 hrs by sulforhodamine B assay relative to control; conditions: OVCAR-5, 48 h, read-out: Activity
[25] = tested on: EKVX; test: Growth inhibition of human EKVX cells incubated for 48 hrs by sulforhodamine B assay

Question: How did the GI50 [1] turn out when `Cc1nc2cc(O)c(O)cc2cc1Oc1ccc(NC(=O)Nc2ccc(Cl)c(Cl)c2)cc1` was run?
Answer: Its GI50 is 8.87 µM.

Question: What about the LC50 [1] of the same compound?
Answer: The LC50 was over 32.5 µM.

Question: And the TGI [1]?
Answer: The TGI was over 32.5 µM.

Question: And the GI50 [2]?
Answer: The GI50 was 8.62 µM.

Question: What about the TGI [2] of the same compound?
Answer: The TGI was over 32.5 µM.

Question: What about the CC50 [2] of the same compound?
Answer: Its CC50 is over 32.5 µM.

Question: And the GI50 [3]?
Answer: The GI50 was 14.1 µM.

Question: And the TGI [3]?
Answer: Its TGI is over 32.5 µM.

Question: And the CC50 [3]?
Answer: Its CC50 is over 32.5 µM.

Question: And the GI50 [4]?
Answer: Its GI50 is 6.95 µM.

Question: What about the TGI [4] of the same compound?
Answer: Its TGI is 15.8 µM.

Question: And the CC50 [4]?
Answer: Its CC50 is over 32.5 µM.

Question: And the GI50 [5]?
Answer: Its GI50 is 4.43 µM.

Question: What about the TGI [5] of the same compound?
Answer: Its TGI is 12.5 µM.

Question: And the CC50 [5]?
Answer: The CC50 was over 32.5 µM.

Question: And the GI50 [6]?
Answer: The GI50 was 10.3 µM.

Question: And the TGI [6]?
Answer: The TGI was over 32.5 µM.

Question: What about the CC50 [6] of the same compound?
Answer: Its CC50 is over 32.5 µM.

Question: What about the GI50 [7] of the same compound?
Answer: Its GI50 is 6.7 µM.

Question: And the TGI [7]?
Answer: Its TGI is 14.6 µM.

Question: What about the CC50 [7] of the same compound?
Answer: Its CC50 is 32 µM.

Question: What about the GI50 [8] of the same compound?
Answer: The GI50 was 10.1 µM.

Question: And the TGI [8]?
Answer: The TGI was over 32.5 µM.

Question: What about the CC50 [8] of the same compound?
Answer: Its CC50 is over 32.5 µM.

Question: What about the GI50 [9] of the same compound?
Answer: The GI50 was 8.6 µM.

Question: What about the TGI [9] of the same compound?
Answer: The TGI was 26 µM.

Question: And the CC50 [9]?
Answer: Its CC50 is over 32.5 µM.

Question: What about the GI50 [10] of the same compound?
Answer: The GI50 was 5.97 µM.

Question: What about the TGI [10] of the same compound?
Answer: The TGI was 13.8 µM.

Question: And the CC50 [10]?
Answer: Its CC50 is 32 µM.

Question: And the GI50 [11]?
Answer: Its GI50 is 6.99 µM.

Question: What about the TGI [11] of the same compound?
Answer: Its TGI is over 32.5 µM.

Question: What about the CC50 [11] of the same compound?
Answer: The CC50 was over 32.5 µM.

Question: And the GI50 [12]?
Answer: The GI50 was 8.83 µM.

Question: And the TGI [12]?
Answer: Its TGI is 21.1 µM.

Question: And the CC50 [12]?
Answer: The CC50 was over 32.5 µM.

Question: What about the GI50 [13] of the same compound?
Answer: Its GI50 is 5.94 µM.

Question: And the TGI [13]?
Answer: Its TGI is 14.2 µM.

Question: What about the CC50 [13] of the same compound?
Answer: Its CC50 is over 32.5 µM.

Question: What about the GI50 [14] of the same compound?
Answer: Its GI50 is 5.67 µM.

Question: What about the TGI [14] of the same compound?
Answer: The TGI was 11.2 µM.

Question: What about the CC50 [14] of the same compound?
Answer: Its CC50 is 22.1 µM.

Question: And the GI50 [15]?
Answer: Its GI50 is 12.3 µM.

Question: What about the TGI [15] of the same compound?
Answer: The TGI was over 32.5 µM.

Question: And the CC50 [15]?
Answer: The CC50 was over 32.5 µM.

Question: What about the GI50 [16] of the same compound?
Answer: Its GI50 is 9.73 µM.

Question: And the TGI [16]?
Answer: The TGI was over 32.5 µM.

Question: And the CC50 [16]?
Answer: The CC50 was over 32.5 µM.

Question: And the GI50 [17]?
Answer: Its GI50 is 11.6 µM.

Question: What about the TGI [17] of the same compound?
Answer: Its TGI is 29.3 µM.

Question: What about the CC50 [17] of the same compound?
Answer: Its CC50 is over 32.5 µM.

Question: What about the GI50 [18] of the same compound?
Answer: Its GI50 is 4.96 µM.

Question: And the TGI [18]?
Answer: Its TGI is 30 µM.

Question: And the CC50 [18]?
Answer: Its CC50 is over 32.5 µM.

Question: And the GI50 [19]?
Answer: Its GI50 is 8.97 µM.

Question: What about the TGI [19] of the same compound?
Answer: The TGI was 30.3 µM.

Question: What about the CC50 [19] of the same compound?
Answer: Its CC50 is over 32.5 µM.

Question: And the GI50 [20]?
Answer: The GI50 was 8.7 µM.

Question: And the TGI [20]?
Answer: The TGI was over 32.5 µM.

Question: And the CC50 [20]?
Answer: Its CC50 is over 32.5 µM.

Question: What about the growth at 0.003 µM [21] of the same compound?
Answer: Its growth at 0.003 µM is 94%.

Question: What about the growth at 3 µM [22] of the same compound?
Answer: The growth at 3 µM was 98%.

Question: What about the growth at 3 µM [23] of the same compound?
Answer: Its growth at 3 µM is 92%.

Question: What about the growth at 3 µM [24] of the same compound?
Answer: The growth at 3 µM was 119%.

Question: Which results are given for `COc1cc2cc(Oc3ccc(NC(=O)Nc4cccc(C(F)(F)F)c4)cc3)c(C)nc2cc1OC`?
Answer: GI50 [1]: 1.55 µM; LC50 [1]: > 50 µM; TGI [1]: 6.87 µM; GI50 [25]: 1.48 µM; LC50 (concentration killing 50% of cells) [25]: > 50 µM; TGI [25]: 6.46 µM; GI50 [2]: 2.33 µM; TGI [2]: 8.44 µM; CC50 [2]: 24.1 µM; GI50 [3]: 2.84 µM; TGI [3]: 16.6 µM; CC50 [3]: > 50 µM; GI50 [4]: 1.6 µM; TGI [4]: 6.02 µM; CC50 [4]: 34.9 µM; GI50 [5]: 1.32 µM; TGI [5]: 4.49 µM; CC50 [5]: 32.4 µM; GI50 [6]: 1.12 µM; TGI [6]: 2.4 µM; CC50 [6]: 5.7 µM; GI50 [7]: 2.59 µM; TGI [7]: > 50 µM; CC50 [7]: > 50 µM; GI50 [8]: 2.19 µM; TGI [8]: 15 µM; CC50 [8]: > 50 µM; GI50 [9]: 1.71 µM; TGI [9]: 4.9 µM; CC50 [9]: 33.8 µM; GI50 [10]: 1.67 µM; TGI [10]: 7.67 µM; CC50 [10]: 35.6 µM; GI50 [11]: 1.63 µM; TGI [11]: 10.1 µM; CC50 [11]: > 50 µM; GI50 [12]: 1.28 µM; TGI [12]: 2.87 µM; CC50 [12]: 9.93 µM; GI50 [13]: 1.08 µM; TGI [13]: 2.66 µM; CC50 [13]: 8.47 µM; GI50 [14]: 1.84 µM; TGI [14]: 10.9 µM; CC50 [14]: > 50 µM; GI50 [15]: 2.95 µM; TGI [15]: 24.9 µM; CC50 [15]: > 50 µM; GI50 [16]: 2.3 µM; TGI [16]: 9.7 µM; CC50 [16]: 36 µM; GI50 [17]: 3.02 µM; TGI [17]: 13 µM; CC50 [17]: > 50 µM; GI50 [18]: 1.32 µM; TGI [18]: 4.29 µM; CC50 [18]: 48.6 µM; GI50 [19]: 2.06 µM; TGI [19]: 16.3 µM; CC50 [19]: > 50 µM; GI50 [20]: 1.34 µM; TGI [20]: 5.43 µM; CC50 [20]: 18.9 µM
